# Data published in patent US3979508A, “Compositions and methods therewith for penicillin hypersensitivity detection” (Kremers-Urban Company, priority 1975, dated 1976).
# “And” between values parts separate entries of the source, which are not always exact repeats. Identical values can stand only once.
# Tested on: penicillin hypersensitivity (patients)
# Assay: Clinical evaluation by 26 investigators: scratch/intradermal skin tests with PPL and Penicillin G (Tables IV-VII, IX-XI)
# Assay type: in vivo, human
# Conditions: for TOTAL (+) No. / TOTAL (+) Percent of total positive: skin reactive penicillin allergy patients
# Experimental: Twenty-six clinical investigators contributed a total of 1160 cases to the evaluation. Patients were tested according to a protocol as follows:
# 1. All patients being subjected to allergy investigation were to be tested for penicillin hypersensitivity. Two preparations were to be used. These are:
# 2. Penicillin G (Benzyl Penicillin) in a concentration of 10,000 units per cc.
# For maximum safety, it was recommended that the tests first be done by the scratch technique. Intradermal tests were then to be done on those showing negative scratch tests. In cases where the penicillin sensitivity was suspected to be of a violent character, more dilute reagents were recommended at the discretion of the individual investigator.
# A uniform technique was recommended for the performance of the intradermal tests. Only a minimal amount of testing reagent was to be injected so as to make a barely discernible intradermal bleb. The amount necessary for this injection is about 0.01 to 0.03 cc. It was recognized that the intrepretation of the test results is an important matter. The reactions were to be recorded in terms of (1) the time required for the appearance of a reaction, (2) the size of erythema and (3) the size of whealing. These were to be recorded as actual measurements. Some objective measurement of dermographism was also to be recorded.
# It was also contemplated that all patients who were to be treated with penicillin be tested as recommended above, even though they had previously received penicillin with impunity.
# A comprehensive clinical history was takan on each patient with particular regard to previous penicillin therapy, and reaction.
# In order to properly analyze the data on such a large number of patients, a data processing system was utilized.
# Table IV summarizes the skin test results on all patients, without regard to other specific factors. […] It will also be noted that a significant number of patients reacted only to PPL, and another group only to Pen G. Therefore, to detect the maximum number of reactors, both test reagents would be required. A technical problem was classification of the ambiguous or borderline reactors, particularly those showing only erythema. Attempts to correlate the appearance of the erythematous flare without wheal formation with a history of penicillin hypersensitivity were unsuccessful. In some instances, however, erythema without wheal did appear to be associated with hypersensitivity to the antibiotic. The time of development of erythema without wheal varied widely from a few minutes to more than 7 days which also made its importance questionable. as a diagnostic sign. For these reasons erythema alone responses were counted with the negatives. In some instances, however, data will be presented in which erythema without wheal are counted as positive responses (figures appearing in parentheses).
# [1] = Group I (675 patients): penicillin Rx, no hypersensitivity, erythema only counted as negative
# [2] = Group I (675 patients): penicillin Rx, no hypersensitivity, parentheses: erythema only (ambiguous) counted as positive
# [3] = Group II (352 patients): penicillin Rx & hypersensitive, erythema only counted as negative
# [4] = Group II (352 patients): penicillin Rx & hypersensitive, parentheses: erythema only (ambiguous) counted as positive
# [5] = Group III (70 patients): no penicillin Rx in past, erythema only counted as negative
# [6] = Group III (70 patients): no penicillin Rx in past, parentheses: erythema only (ambiguous) counted as positive
# [7] = Group IV (56 patients): no data, erythema only counted as negative
# [8] = Group IV (56 patients): no data, parentheses: erythema only (ambiguous) counted as positive
# [9] = TOTALS (1153 patients), erythema only counted as negative
# [10] = TOTALS (1153 patients), parentheses: erythema only (ambiguous) counted as positive
# [11] = TOTALS, all patients (1153 tested), erythema only counted as negative
# [12] = TOTALS, all patients (1153 tested), parentheses: erythema only (ambiguous) counted as positive
# [13] = all patients (1153 tested), erythema only counted as negative
# [14] = all patients (1153 tested), parentheses: erythema only (ambiguous) counted as positive
# [15] = history of therapy: Multi Courses (177 tested)
# [16] = history of therapy: One Course (249 tested)
# [17] = history of therapy: One Dose (152 tested)
# [18] = history of therapy: TOTALS (578 tested)
# [19] = penicillin reaction between 30 minutes and 24 hours post therapy (87 patients), erythema only counted as negative
# [20] = penicillin reaction between 30 minutes and 24 hours post therapy (87 patients), parentheses: erythema only (ambiguous) counted as positive
# [21] = penicillin reaction more than 24 hours post therapy (144 patients), erythema only counted as negative
# [22] = penicillin reaction more than 24 hours post therapy (144 patients), parentheses: erythema only (ambiguous) counted as positive
# [23] = penicillin reaction within 30 minutes post therapy (56 patients), erythema only counted as negative
# [24] = penicillin reaction within 30 minutes post therapy (56 patients), parentheses: erythema only (ambiguous) counted as positive
# [25] = reason for testing: "Penicillin" (240 tested)
# [26] = reason for testing: Other Substances (463 tested)
# [27] = reaction between 30 minutes and 24 hours post therapy, erythema only counted as negative
# [28] = reaction between 30 minutes and 24 hours post therapy, parentheses: erythema only (ambiguous) counted as positive
# [29] = reaction more than 24 hours post therapy, parentheses: erythema only (ambiguous) counted as positive
# [30] = reaction within 30 minutes post therapy, parentheses: erythema only (ambiguous) counted as positive
# [31] = type of hypersensitivity reaction: Skin (309 tested)
# [32] = type of hypersensitivity reaction: Visceral (43 tested)
substance,measurement,setting,value
penicilloyl-poly-L-lysine [PPL],Skin Test (+) No.,[1],36
same,Skin Test (+) Percent,[1],5.3%
same,Skin Test (-) No.,[1],639
same,Skin Test (-) Percent,[1],94.7%
same,Skin Test (+) No.,[2],78
same,Skin Test (+) Percent,[2],11.6%
same,Skin Test (-) No.,[2],597
same,Skin Test (-) Percent,[2],88.4%
same,Skin Test (+) No.,[3],73
same,Skin Test (+) Percent,[3],20.7%
same,Skin Test (-) No.,[3],279
same,Skin Test (-) Percent,[3],79.3%
same,Skin Test (+) No.,[4],97
same,Skin Test (+) Percent,[4],27.6%
same,Skin Test (-) No.,[4],255
same,Skin Test (-) Percent,[4],72.4%
same,Skin Test (+) No.,[5],1
same,Skin Test (+) Percent,[5],1.4%
same,Skin Test (-) No.,[5],69
same,Skin Test (-) Percent,[5],98.6%
same,Skin Test (+) No.,[6],6
same,Skin Test (+) Percent,[6],8.6%
same,Skin Test (-) No.,[6],64
same,Skin Test (-) Percent,[6],91.4%
same,Skin Test (+) No.,[7],3
same,Skin Test (+) Percent,[7],5.4%
same,Skin Test (-) No.,[7],53
same,Skin Test (-) Percent,[7],94.6%
same,Skin Test (+) No.,[8],4
same,Skin Test (+) Percent,[8],7.1%
same,Skin Test (-) No.,[8],52
same,Skin Test (-) Percent,[8],92.9%
same,SKIN TEST RESPONSE No.,No reactions (675 tested),36
same,SKIN TEST RESPONSE Percent,No reactions (675 tested),5.3%
same,Skin Test (-) No.,[9],1040
same,Skin Test (-) Percent,[9],90.2%
same,Skin Test (-) No.,[10],968
same,Skin Test (-) Percent,[10],84.0%
same,Skin Test (+) No.,[11],113
same,Skin Test (+) Percent,[11],9.8%
same,Skin Test (+) No.,[12],185
same,Skin Test (+) Percent,[12],16.1% and 16.0%
same,PPL (+) PG (+) No.,[13],34
same,PPL (+) PG (+) Percent,[13],3.0%
same,PPL (+) PG (-) No.,[13],79
same,PPL (+) PG (-) Percent,[13],6.9%
same,PPL (-) PG (+) No.,[13],38
same,PPL (-) PG (+) Percent,[13],3.3%
same,PPL (-) PG (-) No.,[13],1002
same,PPL (-) PG (-) Percent,[13],86.9%
same,PPL (+) PG (+) No.,[14],80
same,PPL (+) PG (+) Percent,[14],6.9%
same,PPL (+) PG (-) No.,[14],105
same,PPL (+) PG (-) Percent,[14],9.1%
same,PPL (-) PG (+) No.,[14],49
same,PPL (-) PG (+) Percent,[14],4.3%
same,PPL (-) PG (-) No.,[14],919
same,PPL (-) PG (-) Percent,[14],79.7%
same,"positive skin tests, patients positive/patients in group",delayed (after 24 hours) group,24/144
same,"positive skin tests, percent of group","delayed (after 24 hours) group, 144 patients",16.7%
same,Skin Reactions PPL- / PEN G- No.,[15],14
same,Skin Reactions PPL- / PEN G- Percent,[15],7.9%
same,Skin Reactions PPL- / PEN G- No.,[16],14
same,Skin Reactions PPL- / PEN G- Percent,[16],5.6%
same,Skin Reactions PPL- / PEN G- No.,[17],24
same,Skin Reactions PPL- / PEN G- Percent,[17],15.8%
same,Skin Reactions PPL- / PEN G- No.,[18],52
same,Skin Reactions PPL- / PEN G- Percent,[18],9.0%
same,"positive skin tests, patients positive/patients in group",immediate reacting group (within 30 minutes),26/56
same,"positive skin tests, percent of group","immediate reacting group (within 30 minutes), 56 patients",46% and 46.5%
same,percent of skin-test positive patients that would be missed if only this reagent were used as skin test antigen,immediate reactor group,16%
same,PL (+) PG (+) No.,[19],12
same,PL (+) PG (+) Percent,[19],13.8%
same,PPL (+) PG (-) No.,[19],9
same,PPL (+) PG (-) Percent,[19],10.4%
same,PPL (-) PG (+) No.,[19],5
same,PPL (-) PG (+) Percent,[19],5.7%
same,PPL (-) PG (-) No.,[19],61
same,PPL (-) PG (-) Percent,[19],70.0%
same,PL (+) PG (+) No.,[20],14
same,PL (+) PG (+) Percent,[20],16.1%
same,PPL (+) PG (-) No.,[20],10
same,PPL (+) PG (-) Percent,[20],11.5%
same,PPL (-) PG (+) No.,[20],7
same,PPL (-) PG (+) Percent,[20],8.0%
same,PPL (-) PG (-) No.,[20],56
same,PPL (-) PG (-) Percent,[20],64.4%
same,PL (+) PG (+) No.,[21],8
same,PL (+) PG (+) Percent,[21],5.6%
same,PPL (+) PG (-) No.,[21],16
same,PPL (+) PG (-) Percent,[21],11.1%
same,PPL (-) PG (+) No.,[21],9
same,PPL (-) PG (+) Percent,[21],6.2%
same,PPL (-) PG (-) No.,[21],111
same,PPL (-) PG (-) Percent,[21],77.1%
same,PL (+) PG (+) No.,[22],11
same,PL (+) PG (+) Percent,[22],7.6%
same,PPL (+) PG (-) No.,[22],22
same,PPL (+) PG (-) Percent,[22],15.3%
same,PPL (-) PG (+) No.,[22],11
same,PPL (-) PG (+) Percent,[22],7.6%
same,PPL (-) PG (-) No.,[22],100
same,PPL (-) PG (-) Percent,[22],69.4%
same,PL (+) PG (+) No.,[23],12
same,PL (+) PG (+) Percent,[23],21.4%
same,PPL (+) PG (-) No.,[23],14
same,PPL (+) PG (-) Percent,[23],25.0%
same,PPL (-) PG (+) No.,[23],5
same,PPL (-) PG (+) Percent,[23],8.9%
same,PPL (-) PG (-) No.,[23],25
same,PPL (-) PG (-) Percent,[23],44.6%
same,PL (+) PG (+) No.,[24],15
same,PL (+) PG (+) Percent,[24],26.8%
same,PPL (+) PG (-) No.,[24],16
same,PPL (+) PG (-) Percent,[24],28.6%
same,PPL (-) PG (+) No.,[24],5
same,PPL (-) PG (+) Percent,[24],8.9%
same,PPL (-) PG (-) No.,[24],20
same,PPL (-) PG (-) Percent,[24],35.7%
same,Skin Test (+) No.,[25],31
same,Skin Test (+) Percent,[25],12.9%
same,Skin Test (+) No.,[26],21
same,Skin Test (+) Percent,[26],4.5%
same,TOTAL (+) No.,[27],21
same,TOTAL (+) Percent of total positive,[27],80.8%
same,TOTAL (+) No.,[28],24
same,TOTAL (+) Percent of total positive,[28],77.4%
same,TOTAL (+) No.,"reaction more than 24 hours post therapy, erythema only counted as negative",24
same,TOTAL (+) No.,[29],33
same,TOTAL (+) Percent of total positive,[29],75.0%
same,TOTAL (+) No.,"reaction within 30 minutes post therapy, erythema only counted as negative",26
same,TOTAL (+) No.,[30],31
same,TOTAL (+) Percent of total positive,[30],86.1%
same,SKIN TEST RESPONSE No.,[31],66
same,SKIN TEST RESPONSE Percent,[31],21.4%
same,SKIN TEST RESPONSE No.,[32],10
same,SKIN TEST RESPONSE Percent,[32],23.3%
